Reference: ChEMBL document CHEMBL3352589, “The use of spirocyclic scaffolds in drug discovery” (Bioorg Med Chem Lett, 2014)

Biological target: 5-hydroxytryptamine receptor 6 (Homo sapiens, UniProt P50406)
Assay: Antagonist activity at 5-HT6 receptor (unknown origin)

Sequence of 5-hydroxytryptamine receptor 6 (P50406 whole entry): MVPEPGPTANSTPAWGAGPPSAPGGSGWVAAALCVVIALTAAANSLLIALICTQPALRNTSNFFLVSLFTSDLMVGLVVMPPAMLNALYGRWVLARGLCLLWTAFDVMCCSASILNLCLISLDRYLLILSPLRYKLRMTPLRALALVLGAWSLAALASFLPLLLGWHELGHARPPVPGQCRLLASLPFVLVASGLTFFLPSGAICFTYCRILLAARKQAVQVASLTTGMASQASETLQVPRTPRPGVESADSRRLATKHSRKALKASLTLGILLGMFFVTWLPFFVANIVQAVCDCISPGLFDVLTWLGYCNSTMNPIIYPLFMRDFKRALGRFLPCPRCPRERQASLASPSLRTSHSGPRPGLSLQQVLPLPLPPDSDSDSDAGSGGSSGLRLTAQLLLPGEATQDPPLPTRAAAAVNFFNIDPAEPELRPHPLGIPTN

CN1CCc2ccc(N3C(=O)CSC34C(=O)Nc3ccccc34)cc2CC1 (racemic)
Ki: 26 nM

CN1CCc2ccc(N3C(=O)CSC34C(=O)Nc3ccccc34)cc2CC1 (single isomer, unassigned)
Ki: 15 nM
